Experimental data reported in US20060100224A1, “Piperidine ouracil used as a medicament for treating bacterial infections” (priority 2002, published 2006).

Biological target: T1, Pol III from S. aureus (PolC) (Staphylococcus aureus, UniProt P0C1P9)
T1 construct: His tag (pET15b) (N); made in house; host or cells: E. coli BL21(DE3)
T1 sequence (P0C1P9 1-1435): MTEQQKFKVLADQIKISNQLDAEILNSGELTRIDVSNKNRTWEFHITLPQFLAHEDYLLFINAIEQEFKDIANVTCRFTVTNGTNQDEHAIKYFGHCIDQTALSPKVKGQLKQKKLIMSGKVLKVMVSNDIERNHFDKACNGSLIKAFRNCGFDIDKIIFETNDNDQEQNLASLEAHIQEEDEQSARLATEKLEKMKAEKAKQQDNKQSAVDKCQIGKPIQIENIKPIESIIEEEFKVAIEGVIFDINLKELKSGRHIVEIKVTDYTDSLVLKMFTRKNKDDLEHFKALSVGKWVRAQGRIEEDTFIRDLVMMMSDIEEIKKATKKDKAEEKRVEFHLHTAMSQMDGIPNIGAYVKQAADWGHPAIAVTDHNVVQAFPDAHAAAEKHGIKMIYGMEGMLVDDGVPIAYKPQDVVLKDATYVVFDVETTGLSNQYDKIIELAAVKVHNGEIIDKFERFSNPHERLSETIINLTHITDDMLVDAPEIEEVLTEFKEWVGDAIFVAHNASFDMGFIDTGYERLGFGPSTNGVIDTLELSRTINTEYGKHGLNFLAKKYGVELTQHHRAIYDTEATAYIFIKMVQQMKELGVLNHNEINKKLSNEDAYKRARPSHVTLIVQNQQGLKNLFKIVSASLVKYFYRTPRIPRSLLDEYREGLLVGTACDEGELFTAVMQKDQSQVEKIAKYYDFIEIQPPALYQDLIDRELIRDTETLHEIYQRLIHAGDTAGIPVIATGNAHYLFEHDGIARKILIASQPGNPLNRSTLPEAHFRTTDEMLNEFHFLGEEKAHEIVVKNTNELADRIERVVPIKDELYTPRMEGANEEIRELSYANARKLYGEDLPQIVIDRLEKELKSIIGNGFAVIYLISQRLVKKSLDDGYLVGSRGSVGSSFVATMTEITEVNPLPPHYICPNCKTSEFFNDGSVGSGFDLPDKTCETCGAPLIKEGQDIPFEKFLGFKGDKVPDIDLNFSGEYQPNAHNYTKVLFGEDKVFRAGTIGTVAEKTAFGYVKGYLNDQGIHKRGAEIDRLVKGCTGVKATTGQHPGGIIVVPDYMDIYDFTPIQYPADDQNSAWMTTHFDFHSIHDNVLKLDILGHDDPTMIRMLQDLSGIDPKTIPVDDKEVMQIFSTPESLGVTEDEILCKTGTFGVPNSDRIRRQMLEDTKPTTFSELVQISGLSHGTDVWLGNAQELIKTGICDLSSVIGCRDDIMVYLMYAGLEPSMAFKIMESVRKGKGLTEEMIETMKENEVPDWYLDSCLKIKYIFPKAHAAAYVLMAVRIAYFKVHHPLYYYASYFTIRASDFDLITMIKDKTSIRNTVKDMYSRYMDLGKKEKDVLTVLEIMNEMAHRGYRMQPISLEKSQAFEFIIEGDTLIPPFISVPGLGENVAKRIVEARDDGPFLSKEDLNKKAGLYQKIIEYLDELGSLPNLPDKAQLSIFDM
Assay: Determination of the IC50 for Polymerase III (PolC, luciferase-coupled pyrophosphate detection)
Type: biochemical
Conditions: purified PolC ~2 nM, 30° C., 30 min, activated calf thymus DNA
Source text: Cloning, Expression and Purification of Pol III from S. aureus
To clone polC with an N-terminal His tag, the structural gene polC is amplified from S. aureus genomic DNA with the aid of PCR. The primers SAPol 31 5′-[…]-3′ and SAPolrev 5′-[…]-3′ are used to introduce the NdeI and BamHI restriction cleavage sites respectively in front of and behind the amplified gene. After the PCR product which is 4300 bp in size has been digested with NdeI and BamHI, it is ligated into the vector pET15b (Novagen, USA), which has likewise been digested with NdeI and BamHI, and transformed into E. coli XL-1 Blue.
After transformation into E. coli BL21(DE3), the cells are cultivated for expression of PolC at 30° C. in LB medium with 100 μg/ml ampicillin until the OD595 nm is 0.5, cooled to 18° C. and, after addition of 1 mM IPTG, incubated for a further 20 hours. The cells are harvested by centrifugation, washed once in PBS with 1 mM PMSF and taken up in 50 mM NaH2PO4 pH 8.0, 10 mM imidazole, 2 mM β-mercaptoethanol, 1 mM PMSF, 20% glycerol. The cells are disrupted using a French press at 12,000 psi, the cell detritus is removed by centrifugation ([…]×g, 120 min, 4° C.) and the supernatant is stirred with an appropriate amount of Ni-NTA-agarose (from Quiagen, Germany) at 4° C. for 1 hour. After the gel matrix has been packed into a column it is washed with 50 mM NaH2PO4 pH 8.0, 2 mM β-mercaptoethanol, 20 mM imidazole, 10% glycerol, and the purified protein is then eluted with the same buffer containing 100 mM imidazole. The purified protein is mixed with 50% glycerol and stored at −20° C.
Determination of the IC50 for Polymerase III
The activity of PolC is measured in an enzymatically coupled reaction, with the pyrophosphate formed during the polymerization being converted with the aid of ATP sulfurylase into ATP, which is detected using firefly luciferase. The reaction mixture contains, in a final volume of 50 μl, 50 mM Tris/Cl pH 7.5; 5 mM DTT, 10 mM MgCl2, 30 mM NaCl, 0.1 mg/ml BSA, 10% glycerol, 20 μM each dATP, dTTP, dCTP, 2U/ml activated calf thymus DNA (from Worthington, USA), 20 μM APS and 0.06 mM luciferin. The reaction is started by adding purified PolC in a final concentration of ˜2 nM and is incubated at 30° C. for 30 min. The amount of pyrophosphate formed is then converted into ATP by adding ATP sulfurylase (Sigma, USA) in a final concentration of 5 nM and incubating at 30° C. for 15 min. After addition of 0.2 nM firefly luciferase, the luminescence is measured in a luminometer for 60 s. The IC50 is reported as the concentration of an inhibitor which leads to 50% inhibition of the enzymic activity of PolC.

SMILES	IC50
CCc1cc(Nc2cc(=O)n(CC3CCN(C(=O)c4ccno4)CC3)c(=O)[nH]2)ccc1C [Example 9]	140 nM
O=C(c1nc[nH]n1)N1CCCC(Cn2c(=O)cc(Nc3ccc4c(c3)CCC4)[nH]c2=O)C1 (stereo not drawn) [Example 17]	340 nM
O=C(c1cccnc1)N1CCCC(Cn2c(=O)cc(Nc3ccc4c(c3)CCC4)[nH]c2=O)C1 (stereo not drawn) [Example 26]	220 nM
Cc1ccoc1C(=O)N1CCCC(Cn2c(=O)cc(Nc3ccc4c(c3)CCC4)[nH]c2=O)C1 (stereo not drawn) [Example 39]	330 nM

The next compounds have a lower IC50 than those just listed; values first:

IC50	SMILES
110 nM	Cc1nnsc1-c1nc(C(=O)N2CCC(Cn3c(=O)cc(Nc4ccc5c(c4)CCC5)[nH]c3=O)CC2)cs1 [Example 21]
90 nM	O=C(c1csnn1)N1CCC(Cn2c(=O)cc(Nc3ccc4c(c3)CCC4)[nH]c2=O)CC1 [Example 13]
